What was measured:
[1] = Single-dose intravenous pharmacokinetics in dogs; type: in vivo, dog; conditions: for clearance: read-out: Cl_obs (converted); for Vd: read-out: V
Description: The in vivo pharmacokinetic profile of CEND-1 after a single dose was evaluated in four non-GLP animal studies including Sprague-Dawley rats, Beagle dogs, cynomolgus monkeys and BALB/c mice following the intravenous injection of CEND-1 at various doses ([…]; 1.5, 4.5 and 13.5 mg/kg for mice) (Table 1). Blood samples were collected for pharmacokinetic evaluations pre-dose and at 1, 5, 10, 15 and 30 min, and 1, 2 and 6 h post-dose in rats, dogs and monkeys, and 3, 10, 30 and 90 min, and 4 and 8 h post-dose in mice.
(§1) Plasma CEND-1 was quantified by validated liquid chromatography coupled with a tandem mass spectrometry (LC/MS/MS) assay. Tolbutamide or leuprorelin acetate were used as internal standards. AB Sciex Triple Quad API 5500 (Sciex, Framingham, MA, USA), operated in the positive electrospray ionization (ESI) mode, was used to monitor the precursor to production ion transitions of m/z 495.4→69.9.
(§2) No formal sample size calculation was performed. Samples of 2–12 animals and 31 pancreatic cancer patients were considered acceptable to perform initial pharmacokinetic evaluations. The concentrations of CEND-1 were used to calculate PK parameters by employing a non-compartmental analysis (Phoenix^TM WinNonlin, version 6.1). The linear log trapezoidal algorithm, with a weighting of 1/Y*Y was used for parameter calculations. Mean PK parameters were calculated from individual animals in each treatment group. Concentrations below the LLOQ (if any) were excluded for the calculation of PK parameters. The mean values of PK parameters were calculated using Microsoft Excel version 2010.

[2] = Detailed clinical and cage-side observations in pre-clinical species; type: in vivo, mice, rats, dogs and monkeys; conditions: any of the pre-clinical species tested, single IV dose
[3] = Single-dose intravenous pharmacokinetics in mice; type: in vivo, mouse; conditions: for clearance: read-out: Cl_obs (converted); for Vd: read-out: V
Description: The in vivo pharmacokinetic profile of CEND-1 after a single dose was evaluated in four non-GLP animal studies including Sprague-Dawley rats, Beagle dogs, cynomolgus monkeys and BALB/c mice following the intravenous injection of CEND-1 at various doses (1, 5 and 50 mg/kg for rats, dogs and monkeys; 1.5, 4.5 and 13.5 mg/kg for mice) (Table 1). Blood samples were collected for pharmacokinetic evaluations pre-dose and at 1, 5, 10, 15 and 30 min, and 1, 2 and 6 h post-dose in rats, dogs and monkeys, and 3, 10, 30 and 90 min, and 4 and 8 h post-dose in mice.
as §1, §2

[4] = Beagle dog, F, n=3, 5 mg/kg single IV, plasma LC/MS/MS, non-compartmental, mean (SD)
[5] = Beagle dog, F, n=5, 75 mg/kg single IV, plasma LC/MS/MS, non-compartmental, mean (SD)
[6] = female, Beagle dog, F, n=3, 1 mg/kg single IV, plasma LC/MS/MS, non-compartmental, mean (SD)
[7] = female, Beagle dog, F, n=5, 75 mg/kg single IV, plasma LC/MS/MS, non-compartmental, mean (SD)
[8] = male, Beagle dog, M, n=3, 1 mg/kg single IV, plasma LC/MS/MS, non-compartmental, mean (SD)
[9] = male, Beagle dog, M, n=3, 5 mg/kg single IV, plasma LC/MS/MS, non-compartmental, mean (SD)
[10] = male, Beagle dog, M, n=5, 75 mg/kg single IV, plasma LC/MS/MS, non-compartmental, mean (SD)
[11] = male, BALB/c mouse, M, n=3, 1.5 mg/kg single IV, plasma LC/MS/MS, non-compartmental, one time point per animal
[12] = male, BALB/c mouse, M, n=3, 4.5 mg/kg single IV, plasma LC/MS/MS, non-compartmental, one time point per animal
[13] = male, BALB/c mouse, M, n=3, 13.5 mg/kg single IV, plasma LC/MS/MS, non-compartmental, one time point per animal

## CC(=O)N[C@H]1CSSC[C@@H](C(N)=O)NC(=O)[C@H](CC(=O)O)NC(=O)[C@@H]2CCCN2C(=O)CNC(=O)[C@H](CCCCN)NC(=O)[C@H](CC(=O)O)NC(=O)CNC(=O)[C@H](CCCNC(=N)N)NC1=O [CEND-1]
[1]; Beagle dog, F, n=3, 1 mg/kg single IV, plasma LC/MS/MS, non-compartmental, mean (SD)
  t1/2: 0.668 (0.0312) h
[1]; [4]
  AUC(0-inf): 20,443 (2530) h*ng/mL
  Cl_obs: 247 (32.9) mL/hr/kg
  V: 230 (14.6) mL/kg
  t1/2: 0.648 (0.0486) h
[1]; [5]
  AUC(0-inf): 323,936 (25,283) h*ng/mL
  t1/2: 0.620 (0.0439) h
[1]; Beagle, dog, plasma, dogs, single intravenous dose, read-out: average half-life
  half-life: ~40 min
[1]; [6]
  C0: 4780 ng/mL
  clearance: 4.25 mL/min/kg
  Vd: 0.253 L/kg
[1]; female, Beagle dog, F, n=3, 1 mg/kg single IV, plasma LC/MS/MS, non-compartmental, mean (SD), read-out: AUC0-inf
  AUC(0-inf): 3950 ng·h/mL
[1]; female, Beagle dog, F, n=3, 5 mg/kg single IV, plasma LC/MS/MS, non-compartmental, mean (SD)
  C0: 25100 ng/mL
[1]; [7]
  C0: 476000 ng/mL
  clearance: 3.88 mL/min/kg
  Vd: 0.208 L/kg
[1]; [8]
  C0: 6010 ng/mL
  clearance: 4.22 mL/min/kg
  Vd: 0.241 L/kg
[1]; male, Beagle dog, M, n=3, 1 mg/kg single IV, plasma LC/MS/MS, non-compartmental, mean (SD), read-out: AUC0-inf
  AUC(0-inf): 4030 ng·h/mL
[1]; male, Beagle dog, M, n=3, 1 mg/kg single IV, plasma LC/MS/MS, non-compartmental, mean (SD), read-out: t1/2 (converted)
  half-life: 39.9 min
[1]; [9]
  C0: 30200 ng/mL
  clearance: 4.05 mL/min/kg
  Vd: 0.23 L/kg
[1]; male, Beagle dog, M, n=3, 5 mg/kg single IV, plasma LC/MS/MS, non-compartmental, mean (SD), read-out: AUC0-inf
  AUC(0-inf): 20600 ng·h/mL
[1]; male, Beagle dog, M, n=3, 5 mg/kg single IV, plasma LC/MS/MS, non-compartmental, mean (SD), read-out: t1/2 (converted)
  half-life: 39.3 min
[1]; [10]
  C0: 461000 ng/mL
  clearance: 3.83 mL/min/kg
  Vd: 0.204 L/kg
[1]; male, Beagle dog, M, n=5, 75 mg/kg single IV, plasma LC/MS/MS, non-compartmental, mean (SD), read-out: AUC0-inf
  AUC(0-inf): 327000 ng·h/mL
[1]; male, Beagle dog, M, n=5, 75 mg/kg single IV, plasma LC/MS/MS, non-compartmental, mean (SD), read-out: t1/2 (converted)
  half-life: 36.9 min
[2]
  detailed clinical observations and cage-side observations: no test-article-related abnormalities
[3]; BALB/c, mouse, plasma, iv, mice, single intravenous dose, read-out: average plasma half-life
  half-life: ~25 min
[3]; BALB/c, plasma, iv, mouse, dose level of 4–5 mg/kg, read-out: Cmax (C0)
  C0: ~40000 ng/mL
[3]; male, BALB/c, mouse, plasma, iv, 1.5 mg/kg, BALB/c mouse, M, n=3, 1.5 mg/kg single IV, plasma LC/MS/MS, non-compartmental, one time point per animal, read-out: t1/2 (converted)
  half-life: 18.4 min
[3]; male, BALB/c, mouse, plasma, iv, 4.5 mg/kg, BALB/c mouse, M, n=3, 4.5 mg/kg single IV, plasma LC/MS/MS, non-compartmental, one time point per animal, read-out: t1/2 (converted)
  half-life: 20.6 min
[3]; male, BALB/c, mouse, plasma, iv, 13.5 mg/kg, BALB/c mouse, M, n=3, 13.5 mg/kg single IV, plasma LC/MS/MS, non-compartmental, one time point per animal, read-out: t1/2 (converted)
  half-life: 32.8 min
[3]; [11]
  AUC(0-inf): 1480 ng·h/mL
  clearance: 16.9 mL/min/kg
  Vd: 0.449 L/kg
[3]; male, BALB/c mouse, M, n=3, 1.5 mg/kg single IV, plasma LC/MS/MS, non-compartmental, one time point per animal, read-out: C0
  C0: 10300 ng/mL
[3]; [12]
  AUC(0-inf): 3700 ng·h/mL
  clearance: 20.1 mL/min/kg
  Vd: 0.599 L/kg
[3]; male, BALB/c mouse, M, n=3, 4.5 mg/kg single IV, plasma LC/MS/MS, non-compartmental, one time point per animal, read-out: C0
  C0: 40300 ng/mL
[3]; [13]
  AUC(0-inf): 10600 ng·h/mL
  clearance: 21.3 mL/min/kg
  Vd: 1.01 L/kg
[3]; male, BALB/c mouse, M, n=3, 13.5 mg/kg single IV, plasma LC/MS/MS, non-compartmental, one time point per animal, read-out: C0
  C0: 68400 ng/mL

Source: paper PMC10053770, “Assessment of the Pharmacokinetics, Disposition, and Duration of Action of the Tumour-Targeting Peptide CEND-1” (International Journal of Molecular Sciences, 2023)
